Paper PMC10641818, “Development of First-in-Class Dual Sirt2/HDAC6 Inhibitors as Molecular Tools for Dual Inhibition of Tubulin Deacetylation” (Journal of Medicinal Chemistry, 2023)

Experiments:
HDAC1 = target: T1, HDAC1 (Homo sapiens, UniProt Q13547); assay: HDAC1 in vitro deacetylation assay (ZMAL); type: biochemical
T1 construct: purchased BPS Bioscience 50051

α-tubulin acetylation = assay: Immunofluorescence microscopy of α-tubulin acetylation in PC-3M-luc cells; type: cell-based; details: 20 μM, 5 h
Description: The detection of acetylation levels of α-tubulin by immunofluorescence was performed as previously described.[47] In brief, PC-3M-luc cells (25 000 cells per well) were plated in Ibidi 8-well slides (Ibidi, catalogue no. 80826) and incubated overnight at 37 °C, 5% CO2. Next, cells were treated with 20 μM of inhibitor. After 5 h, the medium was removed and the cells washed with PBS and fixed with 4% PFA for 8–10 min at ambient temperature. Cells were rinsed three times with PBS and lysed with extraction buffer (PBS, 0.1% Triton X-100) for 3–5 min at ambient temperature. After another washing step with PBS, blocking buffer (PBS, 0.1% Triton, 5% FCS) was added for at least 10 min before incubating with monoclonal acetylated α-tubulin antibody (1:500, Sigma-Aldrich, catalogue no. T6793) in blocking buffer overnight at 4 °C. […] The cells were rinsed two times with blocking buffer and once with PBS and DAPI in mounting medium ([…] HardSet Antifade Mounting Medium with DAPI, no. H-1500-10) diluted 1:50 in PBS was added and it was incubated for 10 min in the dark. Confocal microscopy was performed with a Leica SP8 confocal microscope equipped with a 40×/1.40 oil objective (Leica Microsystems) keeping the laser settings of the images constant to allow direct comparison of signal intensities between images.

[1] = tested on: MCF-7 breast cancer cells; assay: Cell viability assay (MTT) MCF-7; type: cell-based; details: Homo sapiens, MCF7, 72 h
In short: (§1)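 HGC27 and PC-3M-luc cells (2000/well) were read by MTS after compound in 0.5% DMSO. W1 (10^4/well) and MCF-7 (2 × 10^3/well) were given half-log dilutions for 72 h, then MTT for 1 h, with absorbance at 570 nm minus 690 nm. Viability was fitted to a four-parameter logistic curve.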

[2] = tested on: PC-3M-luc prostate cancer cells; assay: Cell viability assay (MTS) PC-3M-luc; type: cell-based; details: 72 h
In short: as §1

HDAC6 = target: T2, HDAC6 (Homo sapiens, UniProt Q9UBN7); assay: HDAC6 in vitro deacetylation assay (ZMAL); type: biochemical; parameters: purchased BPS Bioscience 50006
T2 sequence (Q9UBN7 1-1215): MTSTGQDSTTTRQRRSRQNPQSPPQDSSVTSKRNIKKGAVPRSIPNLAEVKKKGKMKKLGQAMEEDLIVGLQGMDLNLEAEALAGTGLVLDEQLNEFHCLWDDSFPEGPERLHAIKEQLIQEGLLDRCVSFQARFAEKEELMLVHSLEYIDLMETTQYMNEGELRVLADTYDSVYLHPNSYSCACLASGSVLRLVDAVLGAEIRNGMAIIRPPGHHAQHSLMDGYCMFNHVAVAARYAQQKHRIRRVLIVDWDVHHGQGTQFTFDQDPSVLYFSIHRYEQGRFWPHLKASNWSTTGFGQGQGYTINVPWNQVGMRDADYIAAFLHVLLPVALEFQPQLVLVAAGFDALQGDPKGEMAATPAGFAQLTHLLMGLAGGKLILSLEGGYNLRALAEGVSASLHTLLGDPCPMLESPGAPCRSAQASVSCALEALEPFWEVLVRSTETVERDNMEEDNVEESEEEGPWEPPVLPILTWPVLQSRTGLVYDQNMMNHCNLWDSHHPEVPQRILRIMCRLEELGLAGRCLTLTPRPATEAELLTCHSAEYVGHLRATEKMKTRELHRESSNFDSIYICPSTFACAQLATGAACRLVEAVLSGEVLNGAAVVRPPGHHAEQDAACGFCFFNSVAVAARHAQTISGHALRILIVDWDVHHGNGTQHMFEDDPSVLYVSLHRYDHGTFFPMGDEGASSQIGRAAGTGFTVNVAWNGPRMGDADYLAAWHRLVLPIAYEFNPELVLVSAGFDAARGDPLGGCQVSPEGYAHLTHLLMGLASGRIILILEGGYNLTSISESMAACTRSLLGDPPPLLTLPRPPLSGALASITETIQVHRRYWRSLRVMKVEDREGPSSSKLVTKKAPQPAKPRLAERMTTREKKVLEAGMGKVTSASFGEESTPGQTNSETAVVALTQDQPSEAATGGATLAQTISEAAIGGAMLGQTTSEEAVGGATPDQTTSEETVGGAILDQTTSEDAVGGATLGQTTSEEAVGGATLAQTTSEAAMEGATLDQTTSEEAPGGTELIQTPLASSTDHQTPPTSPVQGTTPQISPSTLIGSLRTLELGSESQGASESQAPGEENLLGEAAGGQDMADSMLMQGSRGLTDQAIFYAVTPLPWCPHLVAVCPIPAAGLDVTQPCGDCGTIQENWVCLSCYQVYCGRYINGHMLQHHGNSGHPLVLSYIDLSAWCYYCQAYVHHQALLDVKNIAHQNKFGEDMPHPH

T1 sequence (Q13547 whole entry): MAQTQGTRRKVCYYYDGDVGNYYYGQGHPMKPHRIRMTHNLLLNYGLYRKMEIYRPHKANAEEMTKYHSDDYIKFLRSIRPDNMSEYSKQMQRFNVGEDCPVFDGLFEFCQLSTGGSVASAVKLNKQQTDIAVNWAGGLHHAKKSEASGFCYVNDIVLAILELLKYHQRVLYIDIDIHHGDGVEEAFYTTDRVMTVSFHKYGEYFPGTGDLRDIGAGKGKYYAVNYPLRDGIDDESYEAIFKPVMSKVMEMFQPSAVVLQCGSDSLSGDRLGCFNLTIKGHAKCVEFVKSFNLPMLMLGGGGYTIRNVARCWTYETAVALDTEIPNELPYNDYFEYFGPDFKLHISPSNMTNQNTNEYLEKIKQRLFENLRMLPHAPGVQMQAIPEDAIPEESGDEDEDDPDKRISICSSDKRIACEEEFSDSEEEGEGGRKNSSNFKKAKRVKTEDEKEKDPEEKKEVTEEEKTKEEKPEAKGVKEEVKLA

inhibition at 10 µM (HDAC1; @ 10 μM, read-out: HDAC1 percentual inhibition)	inhibition at 10 µM (HDAC6; @ 10 μM, read-out: HDAC6 percentual inhibition)	IC50 (HDAC1; deacetylation, mean ± SD)	EC50 ([1]; MTT, mean ± SD)	EC50 ([2]; PC-3M-luc, read-out: PC-3M-luc cell viability EC50, MTS, mean ± SD)	IC50 (HDAC6; deacetylation, mean ± SD)	SMILES	α-tubulin acetylation (immunofluorescence) (α-tubulin acetylation)	inhibition at 100 µM ([1]; @ 0.1 mM, read-out: MCF-7 percentual inhibition)	PC-3M-luc cellular effect ([2]; @ 50 μM)
10%	18%					Cc1cc(C)nc(SCC(=O)Nc2ncc(Cc3cccc(OCc4cn(Cc5ccccc5)nn4)c3)s2)n1 [Compound 4, SirReal1.1, reference compound]	very minor	3%	ni ^b (ni = no inhibition (cellular effect <20% @ 50 μM))
		2.2 ± 0.2 µM	21.1 ± 6.7 µM	30.1 ± 3.8 µM	0.043 ± 0.003 µM	CCCCN(Cc1ccc(C(=O)NO)cc1)C(=O)CCCCn1cc(COc2cccc(Cc3cnc(NC(=O)CSc4nc(C)cc(C)n4)s3)c2)nn1 [Compound 33, 4-((N-Butyl-5-(4-((3-((2-(2-((4,6-dimethylpyrimidin-2-yl)thio)acetamido)thiazol-5-yl)methyl)phenoxy)methyl)-1H-1,2,3-triazol-1-yl)pentanamido)methyl)-N-hydroxybenzamide]	the increase in tubulin hyperacetylation was especially pronounced		
